Series [1] has as its system IL-13-induced STAT6 phosphorylation in the human bronchial epithelial cell line BEAS-2B. As to the kind of experiment: IL-13-induced STAT6 phosphorylation in BEAS-2B cells. In kind it is cell-based.
In series [2] the test system is IL-2 stimulated pSTAT5 in Tall-1 T cells (JAK1/3). As to the kind of experiment: Inhibition of IL-2 stimulated pSTAT5 in Tall-1 T cells. The conditions noted are these: Homo sapiens, IL-2 300 ng/mL, AlphaLisa pSTAT5, read-out: Tall-1 pIC50 (converted). In kind it is cell-based. On the procedure: Assay 2: Inhibition of IL-2 Stimulated pSTAT5 in Tall-1 T Cells
The potency of test compounds for inhibition of interleukin-2 (IL-2) stimulated STATS phosphorylation was measured in the Tall-1 human T cell line (DSMZ) using AlphaLisa. Because IL-2 signals through JAK1/3, this assay provides a measure of JAK1/3 cellular potency.
Phosphorylated STATS was measured via the AlphaLISA SureFire Ultra pSTAT5 (Tyr694/699) kit (PerkinElmer).
Human T cells from the Tall-1 cell line were cultured in a 37° C., 5% CO2 humidified incubator in RPMI (Life Technologies) supplemented with 15% Heat Inactivated Fetal Bovine Serum (FBS, Life Technologies), 2mM Glutamax (Life Technologies), 25 mM HEPES (Life Technologies) and 1X Pen/Strep (Life Technologies). […] Phosphorylated STATS was measured via the pSTAT5 AlphaLisa kit (PerkinElmer). […] Luminescence was measured with excitation at 689 nm and emission at […] using an EnVision plate reader (PerkinElmer) under green filtered <100 lux light.
To determine the inhibitory potency of test compounds in response to IL-2, the average emission intensity of beads bound to pSTAT5 was measured in a human T cell line. IC50 values were determined from analysis of the inhibition curves of signal intensity versus compound concentration. Data are expressed as pIC50 (negative decadic logarithm IC50) values (mean±standard deviation).
A general note: Alpha assays give light when donor and acceptor beads are brought close together.

A further series concerns the target Abl2 (Homo sapiens, UniProt P42684). As to the kind of experiment: biochemical. The note with it: ATP 10 μM.
Series [3] relates to IL-13 induced pSTAT6 in lung tissue. Put plainly: Murine model of IL-13 induced pSTAT6 induction in lung tissue. Type of series: in vivo. The conditions noted are these: mouse lung, oral aspiration 1 mg/mL 50 μL, IL-13 challenge at 4 h; scale 0% to 100% inhibitory effect. The source says:
Assay 3: Murine (Mouse) Model of IL-13 induced pSTAT6 Induction in Lung Tissue
IL-13 is an important cytokine underlying the pathophysiology of asthma (Kudlacz et al. Eur. J. Pharmacol, 2008, 582,154-161). IL-13 binds to cell surface receptors activating members of the Janus family of kinases (JAK) which then phosphorylate STAT6 and subsequently activates further transcription pathways. In the described model, a dose of IL-13 was delivered locally into the lungs of mice to induce the phosphorylation of STAT6 (pSTAT6) which is then measured as the endpoint.
Adult Balb/c mice from Harlan were used in the assay. […] Animals were placed in lateral recumbency post dose and monitored for full recovery from anesthesia before being returned to their home cage. Four hours later, animals were once again briefly anesthetized and challenged with either vehicle or IL-13 (0.03 μg total dose delivered, 50 μL total volume) via oral aspiration before being monitored for recovery from anesthesia and returned to their home cage. […] Plasma and lung levels of test compound were determined by LC-MS analysis against analytical standards constructed into a standard curve in the test matrix. A lung to plasma ratio was determined as the ratio of the lung concentration in ng/g to the plasma concentration in ng/mL at 5 hours. […]

The next series has as its target Abl1 (Homo sapiens, UniProt P00519). As to the kind of experiment: Biochemical ABL1 kinase assay (33P-ATP). The note with it: at 1 μM; ATP 10 μM.
The nature of series [4]: Human plasma protein binding. In kind it is in vitro ADME.

The values below come from patent US20210346357A1 (priority 2020, published 2021).

Where two headings read alike, the source gives them in different places.

Chain of Abl2 (P42684 whole entry): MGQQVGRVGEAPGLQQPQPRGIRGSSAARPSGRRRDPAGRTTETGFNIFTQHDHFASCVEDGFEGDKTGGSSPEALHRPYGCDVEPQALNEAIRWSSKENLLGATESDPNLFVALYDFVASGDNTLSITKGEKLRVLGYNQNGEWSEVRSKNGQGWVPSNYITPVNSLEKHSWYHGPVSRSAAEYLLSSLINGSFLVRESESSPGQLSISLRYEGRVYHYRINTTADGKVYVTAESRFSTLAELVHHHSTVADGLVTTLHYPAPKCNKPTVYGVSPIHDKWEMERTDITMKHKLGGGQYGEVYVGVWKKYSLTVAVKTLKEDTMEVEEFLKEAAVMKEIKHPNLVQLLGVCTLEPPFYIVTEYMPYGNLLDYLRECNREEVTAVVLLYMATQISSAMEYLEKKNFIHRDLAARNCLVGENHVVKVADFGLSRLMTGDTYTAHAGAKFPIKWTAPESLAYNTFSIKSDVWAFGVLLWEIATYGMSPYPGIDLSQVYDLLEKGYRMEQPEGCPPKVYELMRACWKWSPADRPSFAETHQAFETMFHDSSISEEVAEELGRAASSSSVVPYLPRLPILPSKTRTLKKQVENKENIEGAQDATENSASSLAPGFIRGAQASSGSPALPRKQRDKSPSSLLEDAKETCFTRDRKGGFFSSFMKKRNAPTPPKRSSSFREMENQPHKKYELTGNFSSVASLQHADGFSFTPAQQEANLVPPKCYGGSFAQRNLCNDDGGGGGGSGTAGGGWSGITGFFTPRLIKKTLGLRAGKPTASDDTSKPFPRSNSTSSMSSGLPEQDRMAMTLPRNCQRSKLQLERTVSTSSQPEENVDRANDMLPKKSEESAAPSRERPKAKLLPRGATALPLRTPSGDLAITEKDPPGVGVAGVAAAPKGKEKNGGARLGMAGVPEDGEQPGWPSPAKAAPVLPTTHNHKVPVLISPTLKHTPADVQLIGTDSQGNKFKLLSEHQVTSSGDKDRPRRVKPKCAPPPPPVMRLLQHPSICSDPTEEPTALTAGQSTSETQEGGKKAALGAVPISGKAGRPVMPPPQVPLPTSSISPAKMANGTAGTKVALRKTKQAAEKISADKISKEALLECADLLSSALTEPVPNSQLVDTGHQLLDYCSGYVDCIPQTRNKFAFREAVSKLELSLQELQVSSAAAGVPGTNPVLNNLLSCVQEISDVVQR
Chain of Abl1 (P00519 whole entry): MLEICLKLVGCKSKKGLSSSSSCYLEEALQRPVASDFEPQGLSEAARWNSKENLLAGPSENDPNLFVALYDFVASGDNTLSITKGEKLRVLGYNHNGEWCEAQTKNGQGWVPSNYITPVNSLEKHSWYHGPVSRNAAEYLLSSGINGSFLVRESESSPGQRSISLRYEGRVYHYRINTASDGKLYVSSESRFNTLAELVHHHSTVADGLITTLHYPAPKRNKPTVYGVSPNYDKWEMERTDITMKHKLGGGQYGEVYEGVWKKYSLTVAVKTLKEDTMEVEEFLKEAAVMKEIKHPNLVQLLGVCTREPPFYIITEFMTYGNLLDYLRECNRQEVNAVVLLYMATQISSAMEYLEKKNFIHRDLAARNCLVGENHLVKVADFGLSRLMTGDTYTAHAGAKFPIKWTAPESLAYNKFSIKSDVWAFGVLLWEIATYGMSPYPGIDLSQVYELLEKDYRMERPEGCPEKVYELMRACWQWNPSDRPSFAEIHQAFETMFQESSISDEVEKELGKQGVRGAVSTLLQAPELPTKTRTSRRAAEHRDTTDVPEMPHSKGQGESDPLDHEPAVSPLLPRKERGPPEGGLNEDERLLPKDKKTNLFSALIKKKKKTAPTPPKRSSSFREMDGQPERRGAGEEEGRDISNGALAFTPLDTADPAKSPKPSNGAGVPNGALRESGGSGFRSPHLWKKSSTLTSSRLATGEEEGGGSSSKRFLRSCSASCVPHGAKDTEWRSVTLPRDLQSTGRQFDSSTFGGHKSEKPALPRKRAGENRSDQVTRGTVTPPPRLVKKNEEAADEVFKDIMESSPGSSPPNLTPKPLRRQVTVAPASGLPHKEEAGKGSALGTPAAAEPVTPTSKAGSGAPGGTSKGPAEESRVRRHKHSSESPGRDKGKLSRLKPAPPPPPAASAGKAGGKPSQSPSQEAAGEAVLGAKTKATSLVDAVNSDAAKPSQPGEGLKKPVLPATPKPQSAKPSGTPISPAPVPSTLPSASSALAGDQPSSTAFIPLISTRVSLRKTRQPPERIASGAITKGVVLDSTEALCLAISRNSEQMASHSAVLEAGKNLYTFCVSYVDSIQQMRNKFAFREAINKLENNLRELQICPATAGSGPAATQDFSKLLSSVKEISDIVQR

For the compound `CCc1cc(O)ccc1-c1ccc2c(-c3nc4c([nH]3)CN(C(C)C)[C@H](C(=O)N3CC(N(C)C)C3)C4)n[nH]c2c1` [Compound 1, (S)-(3-(dimethylamino)azetidin-1-yl)(2-(6-(2-ethyl-4-hydroxyphenyl)-1H-indazol-3-yl)-5-isopropyl-4,5,6,7-tetrahydro-3H-imidazo[4,5-c]pyridin-6-yl)methanone], the IC50 in series [1] (JAK IC50 divided by the fraction unbound, read-out: binding-corrected JAK IC50) is 0.362 µg/mL; in series [1] (obtained from pIC50 of 7.9, based on a MW of 545.7, read-out: JAK IC50), 0.0069 µg/mL; in series [1] (read-out: pIC50 for IL-13-induced STAT6 phosphorylation (converted)), 12.6 nM; in series [2] it was 2.51 nM; at Abl2, 15 nM. Besides, the “pSTAT6 inhibition at 5 hours” value in series [3] is 75. The compound further returned an inhibition at 1 µM on Abl1 of 90%. In addition, the fraction unbound in series [4] is 0.019. Moreover, in series [4], the “human plasma protein binding” value is listed as 98.1%.

Broadly, the inhibition is the change of the read-out against control, counted positive when it falls. The low end stands for a response near the control, the high end for a response far below the control. Usually fraction unbound stands for the share of the substance not bound to proteins or other matrix. Higher therefore signals much free substance.
